# Several values for one entry are separate records, joined by “and”; a condition that tells them apart may be missing. Identical values can stand only once. Like-named read-outs stand apart in the source and are kept apart here.
# Tests used:
# [1] = tested on: SF-539 CNS cancer cells
# [2] = tested on: CAKI-1 renal cancer cells; assay: cells; details: Homo sapiens
# [3] = tested on: HOP-62 non-small cell lung cancer cells; assay: cells; details: Homo sapiens
# [4] = tested on: HS 578T breast cancer cells; assay: cells; details: Homo sapiens
# [5] = tested on: A498 renal cancer cells; assay: cells; details: Homo sapiens
# [6] = tested on: CAKI-1 renal cancer cells
# [7] = tested on: HOP-92 non-small cell lung cancer cells
# [8] = tested on: RXF-393 renal cancer cells; assay: cells; details: Homo sapiens
# [9] = tested on: MOLT-4 leukemia cells
# [10] = tested on: MCF7/ADR-RES breast cancer cells; assay: cells; format: cell-based
# [11] = tested on: tubulin; format: biochemical, calf
# [12] = tested on: SF-295 CNS cancer cells; assay: cells; details: Homo sapiens
# [13] = tested on: A498 renal cancer cells; details: log10 conc -6.0; 1 µM
# [14] = tested on: U251 CNS cancer cells
# [15] = tested on: SK-OV-3 ovarian cancer cells; details: log10 conc -6.0; 1 µM
# [16] = tested on: OVCAR-3 ovarian cancer cells
# [17] = tested on: SNB-75 CNS cancer cells
# [18] = tested on: SF-268 CNS cancer cells
# [19] = tested on: HS 578T breast cancer cells
# [20] = tested on: HOP-92 non-small cell lung cancer cells; assay: cells; details: Homo sapiens
# [21] = tested on: OVCAR-3 ovarian cancer cells; assay: cells; details: Homo sapiens
# [22] = tested on: HOP-62 non-small cell lung cancer cells
# [23] = tested on: OVCAR-8 ovarian cancer cells
# [24] = tested on: SK-OV-3 ovarian cancer cells; assay: cells; details: Homo sapiens
compound,measurement,setting,value
COc1cc2c(c(OC)c1OC)-c1ccc(C(C)=O)cc1C(NC(C)=O)CC2 (stereo not drawn),Percent Growth,"[1]; log10 conc -4.0, 100 µM",-27%
same,Percent Growth,[1]; log10 conc -5.0,-31%
same,Percent Growth,"[1]; log10 conc -6.0, 1 µM",-24%
same,Percent Growth,"[1]; log10 conc -7.0, 0.1 µM",-24%
same,Percent Growth,[1]; log10 conc -8.0,-16%
same,Percent Growth,"[1]; log10 conc -9.0, 0.001 µM",19%
same,Percent Growth,"[1]; log10 conc -10.0, 0.0001 µM",100%
same,GI50,[2]; CAKI-1,40.1 nM
same,activity at 100 µM,"[2]; CAKI-1, read-out: Percent Growth, log10 conc -4.0",37%
same,activity at 10 µM,"[2]; CAKI-1, read-out: Percent Growth, log10 conc -5.0",39%
same,activity at 1 µM,"[2]; CAKI-1, read-out: Percent Growth, log10 conc -6.0",36%
same,activity at 0.1 µM,"[2]; CAKI-1, read-out: Percent Growth, log10 conc -7.0",35%
same,activity at 0.01 µM,"[2]; CAKI-1, read-out: Percent Growth, log10 conc -8.0",73%
same,GI50,[3]; HOP-62,7.68 nM
same,activity at 100 µM,"[3]; HOP-62, read-out: Percent Growth, log10 conc -4.0",22%
same,activity at 10 µM,"[3]; HOP-62, read-out: Percent Growth, log10 conc -5.0",20%
same,activity at 1 µM,"[3]; HOP-62, read-out: Percent Growth, log10 conc -6.0",44%
same,activity at 0.1 µM,"[3]; HOP-62, read-out: Percent Growth, log10 conc -7.0",46%
same,activity at 0.01 µM,"[3]; HOP-62, read-out: Percent Growth, log10 conc -8.0",47%
same,activity at 0.001 µM,"[3]; HOP-62, read-out: Percent Growth, log10 conc -9.0",77%
same,activity at 0.0001 µM,"[3]; HOP-62, read-out: Percent Growth, log10 conc -10.0",101%
same,activity at 100 µM,"[4]; read-out: Percent Growth, log10 conc -4.0",16%
same,activity at 10 µM,"[4]; read-out: Percent Growth, log10 conc -5.0",27%
same,activity at 0.1 µM,"[4]; read-out: Percent Growth, log10 conc -7.0",38%
same,activity at 0.01 µM,"[4]; read-out: Percent Growth, log10 conc -8.0",39%
same,activity at 0.001 µM,"[4]; read-out: Percent Growth, log10 conc -9.0",27%
same,activity at 0.0001 µM,"[4]; read-out: Percent Growth, log10 conc -10.0",103%
same,activity at 100 µM,"[5]; A498, read-out: Percent Growth, log10 conc -4.0",1%
same,activity at 10 µM,"[5]; A498, read-out: Percent Growth, log10 conc -5.0",3%
same,activity at 0.001 µM,"[5]; A498, read-out: Percent Growth, log10 conc -9.0",72%
same,activity at 0.0001 µM,"[5]; A498, read-out: Percent Growth, log10 conc -10.0",77%
same,TGI,[6],> 100000 nM
same,Percent Growth,"[7]; log10 conc -6.0, 1 µM",11%
same,Percent Growth,"[7]; log10 conc -7.0, 0.1 µM",24% and 45%
same,Percent Growth,"[7]; log10 conc -8.0, 0.01 µM",45% and 66%
same,CC50,"[8]; RXF 393, read-out: LC50",> 1000 nM
same,activity at 1 µM,"[8]; RXF 393, read-out: Percent Growth, log10 conc -6.0",61%
same,activity at 0.1 µM,"[8]; RXF 393, read-out: Percent Growth, log10 conc -7.0",55%
same,activity at 0.01 µM,"[8]; RXF 393, read-out: Percent Growth, log10 conc -8.0",35%
same,activity at 0.001 µM,"[8]; RXF 393, read-out: Percent Growth, log10 conc -9.0",42%
same,activity at 0.0001 µM,"[8]; RXF 393, read-out: Percent Growth, log10 conc -10.0",101%
same,Percent Growth,"[9]; log10 conc -4.0, 100 µM",-5%
same,Percent Growth,[9]; log10 conc -5.0,5%
same,Percent Growth,"[9]; log10 conc -6.0, 1 µM",5%
same,Percent Growth,[9]; log10 conc -8.0,34%
same,Percent Growth,"[9]; log10 conc -9.0, 0.001 µM",32%
same,Percent Growth,"[9]; log10 conc -10.0, 0.0001 µM",106%
same,GI50,[10],23 nM
same,GI50,"[10]; Homo sapiens, MCF7",21.1 nM
same,activity at 100 µM,"[10]; Homo sapiens, MCF7, read-out: Percent Growth, log10 conc -4.0",-1%
same,activity at 10 µM,"[10]; Homo sapiens, MCF7, read-out: Percent Growth, log10 conc -5.0",-1%
same,activity at 1 µM,"[10]; Homo sapiens, MCF7, read-out: Percent Growth, log10 conc -6.0",37%
same,activity at 0.01 µM,"[10]; Homo sapiens, MCF7, read-out: Percent Growth, log10 conc -8.0",56%
same,activity at 0.001 µM,"[10]; Homo sapiens, MCF7, read-out: Percent Growth, log10 conc -9.0",73%
same,activity at 0.0001 µM,"[10]; Homo sapiens, MCF7, read-out: Percent Growth, log10 conc -10.0",91%
same,activity relative to colchicine (inhibition of microtubule assembly),[11]; drug to tubulin molar concentration ratio of about 0.030,about 20%
same,inhibition of microtubule formation compared with colchicine,[11]; in vitro,more active than colchicine
same,IC50,"[11]; in vitro, read-out: LC50 (inhibition of microtubule assembly in vitro)",300 nM
same,plateau turbidity,"[11]; increasing amounts of drug, tubulin 2.1×10^-5 M",decrease in plateau turbidity
same,activity at 100 µM,"[12]; SF-295, read-out: Percent Growth, log10 conc -4.0",-14%
same,activity at 10 µM,"[12]; SF-295, read-out: Percent Growth, log10 conc -5.0",-10%
same,activity at 0.01 µM,"[12]; SF-295, read-out: Percent Growth, log10 conc -8.0",6%
same,activity at 0.001 µM,"[12]; SF-295, read-out: Percent Growth, log10 conc -9.0",16%
same,activity at 0.0001 µM,"[12]; SF-295, read-out: Percent Growth, log10 conc -10.0",104%
same,Percent Growth,[13],25%
same,Percent Growth,"[14]; log10 conc -4.0, 100 µM",4%
same,Percent Growth,[14]; log10 conc -5.0,3%
same,Percent Growth,"[14]; log10 conc -9.0, 0.001 µM",23%
same,Percent Growth,"[14]; log10 conc -10.0, 0.0001 µM",96%
same,Percent Growth,[15],10%
same,TGI,[16],> 100000 nM
same,Percent Growth,"[16]; log10 conc -6.0, 1 µM",7%
same,Percent Growth,"[16]; log10 conc -7.0, 0.1 µM",15%
same,Percent Growth,[16]; log10 conc -8.0,23%
same,Percent Growth,"[17]; log10 conc -4.0, 100 µM",39%
same,Percent Growth,[17]; log10 conc -5.0,43%
same,Percent Growth,"[17]; log10 conc -6.0, 1 µM",52% and 43%
same,Percent Growth,"[17]; log10 conc -7.0, 0.1 µM",46% and 50%
same,Percent Growth,"[17]; log10 conc -8.0, 0.01 µM",41% and 44%
same,Percent Growth,"[17]; log10 conc -9.0, 0.001 µM",17%
same,Percent Growth,"[17]; log10 conc -10.0, 0.0001 µM",96%
same,Percent Growth,"[18]; log10 conc -4.0, 100 µM",32%
same,Percent Growth,[18]; log10 conc -5.0,37%
same,Percent Growth,"[18]; log10 conc -6.0, 1 µM",36% and 38%
same,Percent Growth,"[18]; log10 conc -7.0, 0.1 µM",35% and 45%
same,Percent Growth,"[18]; log10 conc -9.0, 0.001 µM",40%
same,Percent Growth,"[18]; log10 conc -10.0, 0.0001 µM",92%
same,Percent Growth,"[19]; log10 conc -6.0, 1 µM",25%
same,Percent Growth,"[19]; log10 conc -8.0, 0.01 µM",24%
same,GI50,[20]; HOP-92,0.618 nM
same,activity at 100 µM,"[20]; HOP-92, read-out: Percent Growth, log10 conc -4.0",57%
same,activity at 10 µM,"[20]; HOP-92, read-out: Percent Growth, log10 conc -5.0",53%
same,activity at 0.001 µM,"[20]; HOP-92, read-out: Percent Growth, log10 conc -9.0",36%
same,activity at 0.0001 µM,"[20]; HOP-92, read-out: Percent Growth, log10 conc -10.0",94%
same,activity at 100 µM,"[21]; OVCAR-3, read-out: Percent Growth, log10 conc -4.0",5%
same,activity at 10 µM,"[21]; OVCAR-3, read-out: Percent Growth, log10 conc -5.0",5%
same,activity at 0.001 µM,"[21]; OVCAR-3, read-out: Percent Growth, log10 conc -9.0",-11%
same,activity at 0.0001 µM,"[21]; OVCAR-3, read-out: Percent Growth, log10 conc -10.0",97%
same,GI50,[22],< 10 nM
same,Percent Growth,"[22]; log10 conc -6.0, 1 µM",31%
same,Percent Growth,"[22]; log10 conc -7.0, 0.1 µM",29%
same,Percent Growth,"[22]; log10 conc -8.0, 0.01 µM",45%
same,Percent Growth,"[23]; log10 conc -4.0, 100 µM",-45%
same,Percent Growth,[23]; log10 conc -5.0,-29%
same,Percent Growth,"[23]; log10 conc -6.0, 1 µM",9%
same,Percent Growth,"[23]; log10 conc -9.0, 0.001 µM",25%
same,Percent Growth,"[23]; log10 conc -10.0, 0.0001 µM",96%
same,activity at 100 µM,"[24]; SK-OV-3, read-out: Percent Growth, log10 conc -4.0",9%
same,activity at 10 µM,"[24]; SK-OV-3, read-out: Percent Growth, log10 conc -5.0",15%
same,activity at 1 µM,"[24]; SK-OV-3, read-out: Percent Growth, log10 conc -6.0",14%
same,activity at 0.1 µM,"[24]; SK-OV-3, read-out: Percent Growth, log10 conc -7.0",19%
same,activity at 0.01 µM,"[24]; SK-OV-3, read-out: Percent Growth, log10 conc -8.0",12%
same,activity at 0.001 µM,"[24]; SK-OV-3, read-out: Percent Growth, log10 conc -9.0",44%
same,activity at 0.0001 µM,"[24]; SK-OV-3, read-out: Percent Growth, log10 conc -10.0",95%
